Data on 18 compounds can be found in patent publication US12384770B2, “Heterocyclic compound” (Takeda Pharmaceutical Company Limited, priority 2019, dated 2025).

In this test the target is T1, HDAC6 enzyme (Homo sapiens, UniProt Q9UBN7).
T1 construct: HDAC6 enzyme prepared by transducing full length HDAC6 gene into Sf-9 insect cells; GST; purchased SignalChem; host or cells: Sf-9 insect cells
T1 sequence (Q9UBN7 1-1215): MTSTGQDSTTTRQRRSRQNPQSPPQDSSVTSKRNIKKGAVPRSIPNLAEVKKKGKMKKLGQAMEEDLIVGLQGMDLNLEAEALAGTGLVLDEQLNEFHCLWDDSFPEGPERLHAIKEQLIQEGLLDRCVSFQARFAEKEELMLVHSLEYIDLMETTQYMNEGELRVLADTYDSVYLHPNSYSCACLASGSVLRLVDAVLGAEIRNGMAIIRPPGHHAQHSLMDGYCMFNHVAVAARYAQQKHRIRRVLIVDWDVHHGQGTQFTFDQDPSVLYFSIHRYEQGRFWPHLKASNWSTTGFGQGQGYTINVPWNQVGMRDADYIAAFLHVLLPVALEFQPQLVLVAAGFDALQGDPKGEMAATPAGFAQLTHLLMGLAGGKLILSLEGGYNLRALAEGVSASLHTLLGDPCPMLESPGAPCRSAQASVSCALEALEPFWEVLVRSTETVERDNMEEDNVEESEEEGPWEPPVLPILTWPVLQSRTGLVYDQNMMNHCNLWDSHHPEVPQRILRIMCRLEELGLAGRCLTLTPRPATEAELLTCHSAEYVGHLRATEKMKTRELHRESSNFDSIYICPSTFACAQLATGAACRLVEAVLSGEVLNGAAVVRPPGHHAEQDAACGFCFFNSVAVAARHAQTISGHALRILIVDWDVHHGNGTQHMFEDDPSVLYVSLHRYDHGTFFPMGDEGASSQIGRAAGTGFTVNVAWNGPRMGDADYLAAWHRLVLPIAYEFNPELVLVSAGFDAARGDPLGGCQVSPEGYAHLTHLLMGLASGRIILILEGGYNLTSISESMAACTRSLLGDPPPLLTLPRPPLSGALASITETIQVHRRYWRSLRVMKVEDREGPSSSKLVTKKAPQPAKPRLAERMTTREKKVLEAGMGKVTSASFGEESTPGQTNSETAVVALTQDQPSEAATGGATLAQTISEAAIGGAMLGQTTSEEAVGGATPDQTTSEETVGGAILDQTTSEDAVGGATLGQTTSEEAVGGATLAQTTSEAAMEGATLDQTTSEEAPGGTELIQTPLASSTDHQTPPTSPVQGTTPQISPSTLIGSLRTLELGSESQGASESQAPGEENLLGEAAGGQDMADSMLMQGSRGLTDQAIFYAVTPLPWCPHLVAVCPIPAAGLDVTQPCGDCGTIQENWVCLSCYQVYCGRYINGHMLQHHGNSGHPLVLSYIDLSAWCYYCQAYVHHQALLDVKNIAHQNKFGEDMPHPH
Put plainly: HDAC6 enzyme inhibitory assay (HDAC-Glo I/II Assay kit). The test is classed as biochemical. The note with it: wells without enzyme = 100% inhibition, read-out: HDAC6 inhibitory rate (%) (10 μM). On the procedure: Experimental Example 1 HDAC6 Enzyme Inhibitory Assay
HDAC6 enzyme prepared by transducing full length HDAC6 gene into Sf-9 insect cells and purifying by GST affinity column were purchased from SignalChem. Using this enzyme, HDAC6 enzyme inhibitory activity of the compound of the present invention were evaluated. Enzymes were used after preserved at −70° C. HDAC6 enzyme inhibitory activity of the compound of the present invention was measured using HDAC-Glo™ I/II Assay kit (Promega) according to the following experimental method. The test compound diluted with assay buffer (24 mM Tris-HCl (pH 7.5), 1 mM MgCl2, 0.35 mM KCl, 135 mM NaCl, 0.6 mM Glutathione, 0.01% Tween-20) was added to a 384-well plate by each 2 μL. Then, HDAC6 enzyme solution diluted with assay buffer was added thereto by each 4 μL, and the plate was incubated at room temperature for 60 min. After incubated, HDAC substrate-Developer solution prepared according to Promega protocol attached to the assay kit was added to the 384-well plate by each 2 μL, and the enzyme reaction was started. After reacting at room temperature for 20 min, luminescence level was measured using plate reader Envision (PerkinElmer). The inhibitory activity of each compound of Example was calculated as a relative activity value when luminescence level in wells without enzyme is considered as 100% inhibition.
Consider `N#Cc1cccc([C@H]([C@@H](O)c2ccccc2)N2Cc3ccc(-c4nnc(C(F)F)o4)cc3C2=O)c1` (racemic) [Example 40, 3-[(1RS,2SR)-1-{6-[5-(difluoromethyl)-1,3,4-oxadiazol-2-yl]-1-oxo-1,3-dihydro-2H-isoindol-2-yl}-2-hydroxy-2-phenylethyl]benzonitrile], for which the inhibition at 10 µM was found to be 100%.
The result for `N#Cc1ccc([C@H]([C@@H](O)c2ccccc2)N2Cc3ccc(-c4nnc(C(F)F)o4)cc3C2=O)cc1` (racemic) [Example 41, 4-[(1RS,2SR)-1-{6-[5-(difluoromethyl)-1,3,4-oxadiazol-2-yl]-1-oxo-1,3-dihydro-2H-isoindol-2-yl}-2-hydroxy-2-phenylethyl]benzonitrile] reads 100%; that for `Cn1cc([C@H]([C@@H](O)c2ccccc2)N2Cc3ccc(-c4nnc(C(F)F)o4)cc3C2=O)cn1` (racemic) [Example 42, 6-[5-(difluoromethyl)-1,3,4-oxadiazol-2-yl]-2-[(1RS,2SR)-2-hydroxy-1-(1-methyl-1H-pyrazol-4-yl)-2-phenylethyl]-2,3-dihydro-1H-isoindol-1-one], 100%.
The result for `Cn1cc([C@H]([C@@H](O)c2ccc(F)cc2)N2Cc3ccc(-c4nnc(C(F)F)o4)cc3C2=O)cn1` (racemic) [Example 43, 6-[5-(difluoromethyl)-1,3,4-oxadiazol-2-yl]-2-[(1RS,2SR)-2-(4-fluorophenyl)-2-hydroxy-1-(1-methyl-1H-pyrazol-4-yl)ethyl]-2,3-dihydro-1H-isoindol-1-one] reads 100%.
The result for `CCOc1ccc([C@H](O)[C@@H](c2ccccc2)N2Cc3ccc(-c4nnc(C(F)F)o4)cc3C2=O)cn1` (racemic) [Example 44, 6-[5-(difluoromethyl)-1,3,4-oxadiazol-2-yl]-2-[(1RS,2SR)-2-(6-ethoxypyridin-3-yl)-2-hydroxy-1-phenylethyl]-2,3-dihydro-1H-isoindol-1-one] reads 100%.
Consider `CCOc1ccc([C@H]([C@@H](O)c2ccc(F)c(F)c2)N2Cc3ccc(-c4nnc(C(F)F)o4)cc3C2=O)cn1` (racemic) [Example 53, 6-[5-(difluoromethyl)-1,3,4-oxadiazol-2-yl]-2-[(1RS,2SR)-2-(3,4-difluorophenyl)-1-(6-ethoxypyridin-3-yl)-2-hydroxyethyl]-2,3-dihydro-1H-isoindol-1-one], for which the inhibition at 10 µM is 100%.
Next, `O=C1c2cc(-c3nnc(C(F)F)o3)ccc2CN1[C@H](c1ccc(F)nc1)[C@@H](O)c1ccc(F)c(F)c1` (racemic) [Example 56, 6-[5-(difluoromethyl)-1,3,4-oxadiazol-2-yl]-2-[(1RS,2SR)-2-(3,4-difluorophenyl)-1-(6-fluoropyridin-3-yl)-2-hydroxyethyl]-2,3-dihydro-1H-isoindol-1-one]: 100%; `O=C1c2cc(-c3nnc(C(F)F)o3)ccc2CN1[C@H](c1ccc(F)cc1)[C@@H](O)c1ccc(F)nc1` (racemic) [Example 58, 6-[5-(difluoromethyl)-1,3,4-oxadiazol-2-yl]-2-[(1RS,2SR)-1-(4-fluorophenyl)-2-(6-fluoropyridin-3-yl)-2-hydroxyethyl]-2,3-dihydro-1H-isoindol-1-one]: 100%; `O=C1c2cc(-c3nnc(C(F)F)o3)ccc2CN1[C@H](C1CC1)[C@@H](O)c1ccc(Cl)cn1` (racemic) [Example 65, 2-[(1RS,2RS)-2-(5-chloropyridin-2-yl)-1-cyclopropyl-2-hydroxyethyl]-6-[5-(difluoromethyl)-1,3,4-oxadiazol-2-yl]-2,3-dihydro-1H-isoindol-1-one]: 98%.
`O=C1c2cc(-c3nnc(C(F)F)o3)ccc2CN1[C@H](C1CCC(F)(F)CC1)[C@@H](O)c1ccccn1` (racemic) [Example 81, 2-[(1RS,2RS)-1-(4,4-difluorocyclohexyl)-2-hydroxy-2-(pyridin-2-yl)ethyl]-6-[5-(difluoromethyl)-1,3,4-oxadiazol-2-yl]-2,3-dihydro-1H-isoindol-1-one]: the inhibition at 10 µM came to 100%.
The result for `O=C1c2cc(-c3nnc(C(F)F)o3)ccc2CN1[C@H](C1CCC(F)(F)CC1)[C@@H](O)c1ccc(F)nc1` (racemic) [Example 82, 2-[(1RS,2SR)-1-(4,4-difluoro-cyclohexyl)-2-(6-fluoropyridin-3-yl)-2-hydroxyethyl]-6-[5-(difluoromethyl)-1,3,4-oxadiazol-2-yl]-2,3-dihydro-1H-isoindol-1-one] reads 100%.
Next, `O=C1c2cc(-c3nnc(C(F)F)o3)ccc2CN1[C@H](c1ncccn1)[C@@H](O)c1ccc(Cl)cc1` (racemic) [Example 93, 2-[(1RS,2SR)-2-(4-chlorophenyl)-2-hydroxy-1-(pyrimidin-2-yl)ethyl]-6-[5-(difluoromethyl)-1,3,4-oxadiazol-2-yl]-2,3-dihydro-1H-isoindol-1-one]: 100%; `O=C1c2cc(-c3nnc(C(F)F)o3)ccc2CN1[C@H](C1CCOCC1)[C@@H](O)c1cc(F)cc(Cl)c1` (racemic) [Example 106, 2-[(1RS,2SR)-2-(3-chloro-5-fluorophenyl)-2-hydroxy-1-(oxan-4-yl)ethyl]-6-[5-(difluoromethyl)-1,3,4-oxadiazol-2-yl]-2,3-dihydro-1H-isoindol-1-one]: 100%; `O=C1c2cc(-c3nnc(C(F)F)o3)ccc2CN1[C@H](C1CCOCC1)[C@@H](O)c1ccc(F)c(Cl)c1` (racemic) [Example 107, 2-[(1RS,2SR)-2-(3-chloro-4-fluorophenyl)-2-hydroxy-1-(oxan-4-yl)ethyl]-6-[5-(difluoromethyl)-1,3,4-oxadiazol-2-yl]-2,3-dihydro-1H-isoindol-1-one]: 101%.
Next, `O=C1c2cc(-c3nnc(C(F)F)o3)ccc2CN1[C@H](C1CCOCC1)[C@@H](O)c1cccc(C(F)(F)F)c1` (racemic) [Example 116, 6-[5-(difluoromethyl)-1,3,4-oxadiazol-2-yl]-2-{(1RS,2SR)-2-hydroxy-1-(oxan-4-yl)-2-[3-(trifluoromethyl)phenyl]ethyl}-2,3-dihydro-1H-isoindol-1-one]: 101%; `O=C1c2cc(-c3nnc(C(F)F)o3)ccc2CN1[C@H](c1ncccn1)[C@@H](O)c1cccc(Cl)c1` (racemic) [Example 133, 2-[(1RS,2SR)-2-(3-chlorophenyl)-2-hydroxy-1-(pyrimidin-2-yl)ethyl]-6-[5-(difluoromethyl)-1,3,4-oxadiazol-2-yl]-2,3-dihydro-1H-isoindol-1-one]: 100%; `O=C1c2cc(-c3nnc(C(F)F)o3)ccc2CN1[C@H](c1ncccn1)[C@@H](O)c1ccc(F)cc1` (racemic) [Example 134, 6-[5-(difluoromethyl)-1,3,4-oxadiazol-2-yl]-2-[(1RS,2SR)-2-(4-fluorophenyl)-2-hydroxy-1-(pyrimidin-2-yl)ethyl]-2,3-dihydro-1H-isoindol-1-one]: 101%.
Consider `O=C1c2cc(-c3nnc(C(F)F)o3)ccc2CN1[C@H](c1ccccn1)[C@H](O)c1ccccn1` (racemic) [Example 135, 6-[5-(difluoromethyl)-1,3,4-oxadiazol-2-yl]-2-[(1RS,2SR)-2-hydroxy-1,2-di(pyridin-2-yl)ethyl]-2,3-dihydro-1H-isoindol-1-one], for which the inhibition at 10 µM was 99%.
